The structures appear in SMILES notation.

T1 sequence (P01116 1-169 isoform P01116-2 G12C/C51S/C80L/C118S): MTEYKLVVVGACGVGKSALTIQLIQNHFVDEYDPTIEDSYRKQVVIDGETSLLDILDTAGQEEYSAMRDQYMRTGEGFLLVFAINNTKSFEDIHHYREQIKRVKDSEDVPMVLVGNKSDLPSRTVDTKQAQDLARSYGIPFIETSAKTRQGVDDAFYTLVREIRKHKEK

This experiment has as its target T1, KRAS G12C (GMPPNP-loaded) and cRAF Ras-binding domain (Homo sapiens, UniProt P01116, C118S/C51S/C80L/G12C).
T1 construct: truncated version comprising amino acids 1-169
Briefly: Inhibition of KRAS G12C and cRAF binding (AlphaScreen). The conditions noted are these: KRAS G12C preloaded with GTP analogue GMPPNP, 2 hours preincubation. The source says: The ability of compounds of Formula (A), Formula (B) and Formula (C), and pharmaceutically acceptable salts and/or isotopologues thereof, to inhibit activity of the GTP-bound form of KRAS G12C can be tested using methods such as the in vitro assay described in Example 179 below. Example 179 describes determining, for various compounds, the half-maximal inhibition (IC50) of KRAS G12C loaded with GTP analogue GMPPNP from binding to cRaf, as the Ras-binding domain (RBD). Example 180 describes determining, for various compounds, the half-maximal inhibition (IC50) of KRAS G12C loaded with GTP analogue GMPPNP from binding to PI3Kα, as the Ras-binding domain (RBD). Example 181 describes testing compounds for the ability to inhibit cell viability in MCF10A G12C/A59G mutant, which abrogates GTPase activity, thus preventing hydrolysis of GTP to GDP.
The AlphaScreen technology was used to determine IC50s for compound inhibition of KRAS G12C (present as the Cys-light (C51S, C80L and C118S), truncated version comprising amino acids 1-169) and cRAF interaction. Compounds were diluted in 100% DMSO and each compound concentration was spotted at 200 nl/well onto low volume, white 384 well plates. The KRAS G12C contained a biotin-AviTag and the cRaf, as Ras-binding domain (amino acids 50-131, RBD), was GST-tagged. KRAS G12C was preloaded with the GTP analogue Guanosine 5′-[β,γ-imido]triphosphate (GMPPNP). The KRAS G12C was diluted in 25 mM Hepes, pH 7.4, 150 mM NaCl, 5 mM MgCl2, 0.01% TritonX-100 and 10 μM GMPPNP and added at 10 ul/well to compound-spotted plates resulting in a DMSO concentration of 2%. Plates were incubated for 2 hours. A mixture of RBD and the AlphaScreen streptavidin donor and glutathione acceptor beads diluted in 25 mM Hepes, pH 7.4, 150 mM NaCl, 5 mM MgCl2, 0.01% TritonX-100 and 2% DMSO was then added at 10 ul/well and incubated for 60-90 minutes before the samples were read for emission at 570 nm after excitation of the donor beads at 680 nm. All incubations were performed at room temperature. The final top compound concentration was 50 μM with 1:3 titrations for 10-point dose response curves. Final assay conditions were 0.5 nM KRAS G12C, 0.75 nM RBD and 5 μg/ml each of AlphaScreen donor and acceptor beads. IC50s were determined using nonlinear regression fit of [inhibitor] vs. response (4 parameters). […]
On the technique in general: In Alpha technology, singlet oxygen from a donor bead excites a nearby acceptor bead.
In general, IC50 refers to the concentration needed to halve the response being measured. The low end stands for greater potency in that assay, the high end for weaker potency in that assay. Take `Cc1noc(/C=C/C(=O)N2CC[C@@H](N(C)c3nc(OCC45CCCN4CCC5)nc4c3C[C@@H](C)[C@H](c3nc(N)cc(C)c3C(F)(F)F)C4)C2)n1` (single isomer, unassigned) [Compound 9]: the IC50 fell in the range of 100 to 500 nM.

Compound `CN1CC[C@H]1/C=C/C(=O)N1CC[C@@H](N(C)c2nc(OC[C@@]34CCCN3C[C@H](F)C4)nc3c(F)c(-c4nc(N)cc5cccc(F)c45)ncc23)C1` (single isomer, unassigned) [Example 2] had an IC50 of 100 to 500 nM.

Turning to `CN1CC[C@@H]1/C=C/C(=O)N1CC[C@@H](N(C)c2nc(OC[C@@]34CCCN3C[C@H](F)C4)nc3c(F)c(-c4nc(N)cc5cccc(Cl)c45)ncc23)C1` (single isomer, unassigned) [Example 3], the half-maximal inhibitory concentration (IC50) was in the range of 10 to 100 nM.

For `CN1CC[C@H]1/C=C/C(=O)N1CC[C@@H](N(C)c2nc(OC[C@@]34CCCN3C[C@H](F)C4)nc3c(F)c(-c4nc(N)cc5cccc(Cl)c45)ncc23)C1` (single isomer, unassigned) [Example 6], the IC50 is below 10 nM.

As to `CN1CC[C@@H]1/C=C/C(=O)N1CC[C@@H](N(C)c2nc(OC[C@@]34CCCN3C[C@H](F)C4)nc3c(F)c(-c4nc(N)cc5cccc(F)c45)ncc23)C1` (single isomer, unassigned) [Example 7], the IC50 is below 10 nM.

For the compound `Cc1noc(/C=C/C(=O)N2CC[C@@H](N(C)c3nc(OCC45CCCN4CCC5)nc4c3C[C@H](C)[C@@H](c3nc(N)cc(C)c3C(F)(F)F)C4)C2)n1` (single isomer, unassigned) [Example 17], the concentration for half-maximal inhibition (IC50) fell in the range of 10 to 100 nM.

On to `C=CC(=O)N1CC[C@@H](N(C)c2nc(OCC34CCCN3CCC4)nc3c2C[C@H](C)[C@@H](c2nc(N)cc(C)c2C(F)(F)F)C3)C1` (single isomer, unassigned) [Example 18], for which the IC50 is 100 to 500 nM.

The compound `Cc1cc(N)nc(-c2ncc3c(N(C)[C@@H]4CCN(C(=O)/C=C/[C@H]5CCN5C)C4)nc(OC[C@@]45CCCN4C[C@H](F)C5)nc3c2F)c1C(F)(F)F` (single isomer, unassigned) [Example 26] yielded a half-inhibitory concentration (IC50) below 10 nM.

The compound `Cc1cc(N)nc(-c2ncc3c(N(C)[C@@H]4CCN(C(=O)/C=C/[C@@H]5CCN5C)C4)nc(OC[C@@]45CCCN4C[C@H](F)C5)nc3c2F)c1C(F)(F)F` (single isomer, unassigned) [Example 27] showed an IC50 below 10 nM.

`Cc1cc(N)nc(-c2ncc3c(N(C)[C@@H]4C[C@@H](C)N(C#N)C4)nc(OC[C@@]45CCCN4C[C@H](F)C5)nc3c2F)c1C(F)(F)F` (single isomer, unassigned) [Example 40]: the IC50 is 10 to 100 nM.

In turn, `C=CC(=O)N1CC(CN(C)c2nc(OCC34CCCN3CCC4)nc3c2C[C@H](C)[C@@H](c2nc(N)cc(C)c2C(F)(F)F)C3)C1` (single isomer, unassigned) [Example 50] came in with a concentration for half-maximal inhibition (IC50) of at least 500 nM.

`Cc1noc(/C=C/C(=O)N2CC[C@@H](N(C)c3nc(OC[C@@]45CCCN4C[C@H](F)C5)nc4c3C[C@@H](C)[C@H](c3nc(N)cc(C)c3C(F)(F)F)C4)C2)n1` (single isomer, unassigned) [Example 57] had an IC50 below 10 nM.

`C=CC(=O)N1CC(CN(C)c2nc(OC[C@@]34CCCN3C[C@H](F)C4)nc3c2C[C@@H](C)[C@H](c2nc(N)cc(C)c2C(F)(F)F)C3)C1` (single isomer, unassigned) [Example 58]: the IC50 was in the range of 100 to 500 nM.

With `C=CC(=O)N1CC[C@@H](N(C)c2nc(OC[C@@]34CCCN3C[C@H](F)C4)nc3c(F)c(-c4cccc(Cl)c4C4CC4)ncc23)[C@H]1C` (single isomer, unassigned) [Example 77], the IC50 lay in the range of 100 to 500 nM.

Take `C=CC(=O)N1CC[C@@H](N(C)c2nc(OC[C@@]34CCCN3C[C@H](F)C4)nc3c(F)c(-c4cccc(Cl)c4C(F)(F)F)ncc23)[C@H]1C` (single isomer, unassigned) [Example 78]: the half-inhibitory concentration (IC50) was 10 to 100 nM.

Compound `Cc1nsc(/C=C/C(=O)N2CC(CN(C)c3nc(OC[C@@]45CCCN4C[C@H](F)C5)nc4c3C[C@@H](C)[C@H](c3nc(N)cc(C)c3C(F)(F)F)C4)C2)n1` (single isomer, unassigned) [Example 126] yielded an IC50 of 10 to 100 nM.

In turn, `Cc1cc(N)nc([C@H]2Cc3nc(OC[C@@]45CCCN4C[C@H](F)C5)nc(N(C)CC4CN(C(=O)/C=C/c5nc(C(C)(C)O)no5)C4)c3C[C@@H]2C)c1C(F)(F)F` (single isomer, unassigned) [Example 155] had a half-maximal inhibitory concentration (IC50) of at least 500 nM.

`Cc1cc(N)nc([C@@H]2Cc3nc(OC[C@@]45CCCN4C[C@H](F)C5)nc(N(C)CC4CN(C(=O)/C=C/c5nc(C(C)(C)O)no5)C4)c3C[C@H]2C)c1C(F)(F)F` (single isomer, unassigned) [Example 162] registered a half-maximal inhibitory concentration (IC50) of 10 to 100 nM.

Take `Cc1nsc(/C=C/C(=O)N2CC(CN(C)c3nc(OC[C@@]45CCCN4C[C@H](F)C5)nc4c3C[C@H](C)[C@@H](c3nc(N)cc(C)c3C(F)(F)F)C4)C2)n1` (single isomer, unassigned) [Example 174]: the IC50 is at least 500 nM.

In turn, `Cc1cc(N)nc(-c2ncc3c(N(C)[C@@H]4CCN(C(=O)/C=C/C5CCN5C)C4)nc(OC[C@@]45CCCN4C[C@H](F)C5)nc3c2F)c1C(F)(F)F` (stereo in doubt) [Example 134] showed an IC50 below 10 nM.

In turn, `Cc1noc(/C=C/C(=O)N2CC[C@@H](N(C)c3nc(OCC45CCCN4CCC5)nc4c3C[C@H](C)C(c3nc(N)cc(C)c3C(F)(F)F)C4)C2)n1` (stereo in doubt) [Example 163] returned an IC50 of 10 to 100 nM.

For `Cc1nsc(/C=C/C(=O)N2CC(CN(C)c3nc(OC[C@@]45CCCN4C[C@H](F)C5)nc4c(F)c(-c5nc(N)cc(C)c5C(F)(F)F)ncc34)C2)n1` [Example 4, (E)-1-(3-(((7-(6-amino-4-methyl-3-(trifluoromethyl)pyridin-2-yl)-8-fluoro-2-(((2R,7aS)-2-fluorohexahydro-1H-pyrrolizin-7a-yl)methoxy)pyrido[4,3-d]pyrimidin-4-yl)(methyl)amino)methyl)azetidin-1-yl)-3-(3-methyl-1,2,4-thiadiazol-5-yl)prop-2-en-1-one], the concentration for half-maximal inhibition (IC50) lay in the range of 10 to 100 nM.

As to `C=CC(=O)N1CC[C@@H](N(C)c2nc(OC[C@@]34CCCN3C[C@H](F)C4)nc3c(F)c(-c4nc(N)cc(C)c4C4CC4)ncc23)C1` [Example 5, 1-((R)-3-((7-(6-amino-3-cyclopropyl-4-methylpyridin-2-yl)-8-fluoro-2-(((2R,7aS)-2-fluorotetrahydro-1H-pyrrolizin-7a(5H)-yl)methoxy)pyrido[4,3-d]pyrimidin-4-yl)(methyl)amino)pyrrolidin-1-yl)prop-2-en-1-one], the IC50 was 100 to 500 nM.

On to `CC(C)c1noc(/C=C/C(=O)N2CC[C@@H](N(C)c3nc(OC[C@@]45CCCN4C[C@H](F)C5)nc4c(F)c(-c5nc(N)ccc5C5CC5)ncc34)C2)n1` [Example 8, (E)-1-((R)-3-((7-(6-amino-3-cyclopropylpyridin-2-yl)-8-fluoro-2-(((2R,7aS)-2-fluorotetrahydro-1H-pyrrolizin-7a(5H)-yl)methoxy)pyrido[4,3-d]pyrimidin-4-yl)(methyl)amino)pyrrolidin-1-yl)-3-(3-isopropyl-1,2,4-oxadiazol-5-yl)prop-2-en-1-one], for which the IC50 lay within 10 to 100 nM.

`Cc1noc(/C=C/C(=O)N2CC[C@@H](N(C)c3nc(OC[C@@]45CCCN4C[C@H](F)C5)nc4c(F)c(-c5nc(N)cc(C)c5C5CC5)ncc34)C2)n1` [Example 11, (E)-1-((R)-3-((7-(6-amino-3-cyclopropyl-4-methylpyridin-2-yl)-8-fluoro-2-(((2R,7aS)-2-fluorotetrahydro-1H-pyrrolizin-7a(5H)-yl)methoxy)pyrido[4,3-d]pyrimidin-4-yl)(methyl)amino)pyrrolidin-1-yl)-3-(3-methyl-1,2,4-oxadiazol-5-yl)prop-2-en-1-one]: the half-inhibitory concentration (IC50) was below 10 nM.

As for `C=CC(=O)N1CC[C@@H](N(C)c2nc(OC[C@@]34CCCN3C[C@H](F)C4)nc3c(F)c(-c4cc(O)cc(Cl)c4C4CC4)ncc23)C1` [Example 12, 1-((R)-3-((7-(3-chloro-2-cyclopropyl-5-hydroxyphenyl)-8-fluoro-2-(((2R,7aS)-2-fluorotetrahydro-1H-pyrrolizin-7a(5H)-yl)methoxy)pyrido[4,3-d]pyrimidin-4-yl)(methyl)amino)pyrrolidin-1-yl)prop-2-en-1-one], the half-maximal inhibitory concentration (IC50) is below 10 nM.

The values above are taken from patent US20260256789A1, “METHODS FOR TREATMENT OF CANCER” (Frontier Medicines Corporation, priority 2022, published 2026).
